According to article PMC3553074 (PLoS ONE, 2013):

Molecular target: Ft-MglA/Ft-SspA complex (Francisella tularensis, UniProt Q5NFG1+Q5NHJ6)
Sequence (Q5NFG1 1-205): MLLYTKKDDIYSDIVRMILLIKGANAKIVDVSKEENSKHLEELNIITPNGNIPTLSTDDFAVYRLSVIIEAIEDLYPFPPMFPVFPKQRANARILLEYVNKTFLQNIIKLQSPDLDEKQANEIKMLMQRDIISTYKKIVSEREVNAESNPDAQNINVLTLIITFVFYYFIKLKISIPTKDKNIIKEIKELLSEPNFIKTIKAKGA
Sequence (Q5NHJ6 1-210): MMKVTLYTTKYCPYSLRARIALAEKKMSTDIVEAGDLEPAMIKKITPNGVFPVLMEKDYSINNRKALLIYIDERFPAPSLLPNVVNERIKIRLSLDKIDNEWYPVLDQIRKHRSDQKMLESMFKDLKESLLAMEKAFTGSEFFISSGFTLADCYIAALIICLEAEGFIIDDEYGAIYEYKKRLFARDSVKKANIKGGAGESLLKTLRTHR

CCN(CC)CCCC(C)Nc1c2ccc(Cl)cc2nc2ccc(OC)cc12 (stereo not shown) [quinacrine]
ΔTm (Tm1): 24.0 °C
